Source: patent publication US6555322B1, “α2-macroglobulin receptor as a receptor for CTGF” (FibroGen, Inc., priority 1999, dated 2003)

Tests used:
[1] = test system: MG63 cells; test: Internalization and degradation of 125I-rhCTGF during binding, with additives; assay type: cell-based, human; conditions: for degraded/internalized 125I-CTGF with additive: both cultures (control and TGF-β treated)
Procedure: Another experiment was performed in which the internalization and degradation of CTGF was followed during the time course of binding to the cells. Various additives were included in the binding medium to examine the effect(s) and specificity of CTGF binding and internalization through LRP.
MG63 cells were plated and treated with TGF-β for 24 or 48 hours as in the previous experiment.

[2] = molecular target: T1, LRP (Mus musculus, UniProt Q91ZX7); test: RAP-GST competition of CTGF binding on BMS-2 cells; set-up: species or system murine
T1 construct: endogenous in cells; host or cells: BMS2 (BMS-2) murine bone marrow stromal cells
Procedure: In a further study, receptor associated protein (RAP), a known inhibitor of ligand binding to LRP, was prepared. Plasmid DNA containing the human RAP cDNA sequence was obtained (ATCC as the I.M.A.G.E. Consortium Clone ID 511113, Lennon et al., 1996, Genomics, 33:151-152). The RAP sequence was sub-cloned into the pGEX4T-1 vector (Pharmacia) for the synthesis of a RAP-GST (glutathione S-transferase) fusion protein in E. coli. The fusion protein was purified over glutathione-Sepharose as described (Warshawsky et al., 1993, J. Biol. Chem., 268:22046-22054), and tested as a competitor of CTGF binding.

[3] = test system: MG63 cells; test: CTGF production and accumulation in medium and cell layer (Western blot, densitometry); assay type: cell-based, human; conditions: RAP 10 nM
Procedure: To determine whether LRP was involved in the mediation of a CTGF signaling event, experiments were conducted to study the effect of anti-LRP antibodies on CTGF production and accumulation. MG63 cells were plated at 2.5×10^4 cells/cm^2 in 24 well plates in MEM with 10% FBS. The following day, the medium was changed to MEM with 0.5% FBS. Additionally, half of the wells were supplemented with 20 ng/ml TGF-β2. Some of the cells also received either anti-LRP antibodies (American Diagnostic) (3 ug/ml 3402 and 1 ug/ml 3501) or RAP (10 nM). At 15, 23, and 47 hours after exposure to these additives, medium and cell layers were harvested.
The harvested media was then incubated with heparin-SEPHAROSE for 4 hours. The beads were washed twice with RIPA buffer and the bound fraction was eluted with SDS-PAGE sample buffer. The cell layer was washed twice with PBS, then extracted for 15 min at 4° C. with RIPA buffer. The cell layer was collected by scraping, and centrifuged to remove the insoluble material. The soluble fraction was used for SDS-PAGE analysis. Both medium and cell layer samples were run non-reduced on 12% SDS-PAGE, then blotted to nitrocellulose. The nitrocellulose membranes were incubated with a rabbit polyclonal antibody made against rhCTGF (using procedures well known in the art), the data of which is shown in FIGS. 22A and 22B.

[4] = molecular target: T2, high Mr CTGF binding protein on BMS-2 cells (Mus musculus, UniProt Q91ZX7); test: Binding analysis of 125I-CTGF competition with LRP ligands on BMS-2 cells; set-up: species or system murine; conditions: 0.1 nM 125I-CTGF
T2 construct: endogenous in cells; host or cells: BMS2 (BMS-2) murine bone marrow stromal cells
Procedure: BMS-2 cells were incubated with 0.1 nM ^125I-CTGF in the presence of unlabeled CTGF, recombinant human apoE, low density lipoprotein purified from human plasma (LDL), or lipoprotein lipase purified from bovine milk (LpL).

[5] = molecular target: T1, LRP; test: Competitive binding and cross-linking of LRP ligands with 125I-CTGF on BMS-2 cells; set-up: species or system murine; conditions: 50 pM 125I-CTGF; CTGF 21.5 nM, BP5 201-218 50 μg/ml, LF 25 μg/ml, apo E 20 μg/ml, LpL 20 μg/ml
Procedure: To examine whether ligands known to bind to LRP inhibit CTGF binding, BMS-2 cells were labeled with 50 pM ^125I-CTGF in the presence or absence of unlabeled ligand (CTGF: 21.5 nM; BP5^201-218: 50 μg/ml or […] (Campbell and Andress, 1997, Am. J. Physiol., 273:E1005-13); lactoferrin (LF): 25 μg/ml or 250 nM; apo E: 20 μg/ml or 574 nM; lipoprotein lipase (LpL): 20 μg/ml or 400 nM). The cells were cross-linked and the receptor complexes were solubilized, processed on SDS-PAGE and visualized by autoradiography.

[6] = test system: MG63 cells; test: Internalization and degradation kinetics of 125I-CTGF with heparin or lactoferrin; assay type: cell-based, human; conditions: 3 μg/ml heparin or lactoferrin
Procedure: Experiments were performed in which the internalization and degradation kinetics of CTGF were followed in the presence or absence of a known LRP ligand, lactoferrin. Kinetics were followed in the presence or absence of 3 μg/ml heparin or lactoferrin. ^125I-CTGF was bound to MG63 cells at 4° C. and free CTGF was removed by washing the cells. Fresh medium was placed on the cells, and the cells were transferred to 37° C. At each time point, the medium was removed and TCA precipitated. Degraded ^125I-CTGF was quantified by measuring the cpm in the non-precipitable fraction (see FIG. 17). In parallel experiments, ^125I-CTGF was bound to MG63 cells at 4° C. and free CTGF was removed by washing the cells. Fresh medium was placed on the cells, and they were transferred to 37° C. At each time point, the cell layer was removed by extensive trypsinization at 4° C. The cells were centrifuged and the cpm associated with the pellet, the internalized fraction, was determined (see FIG. 18).

T1 sequence (Q91ZX7 20-4545): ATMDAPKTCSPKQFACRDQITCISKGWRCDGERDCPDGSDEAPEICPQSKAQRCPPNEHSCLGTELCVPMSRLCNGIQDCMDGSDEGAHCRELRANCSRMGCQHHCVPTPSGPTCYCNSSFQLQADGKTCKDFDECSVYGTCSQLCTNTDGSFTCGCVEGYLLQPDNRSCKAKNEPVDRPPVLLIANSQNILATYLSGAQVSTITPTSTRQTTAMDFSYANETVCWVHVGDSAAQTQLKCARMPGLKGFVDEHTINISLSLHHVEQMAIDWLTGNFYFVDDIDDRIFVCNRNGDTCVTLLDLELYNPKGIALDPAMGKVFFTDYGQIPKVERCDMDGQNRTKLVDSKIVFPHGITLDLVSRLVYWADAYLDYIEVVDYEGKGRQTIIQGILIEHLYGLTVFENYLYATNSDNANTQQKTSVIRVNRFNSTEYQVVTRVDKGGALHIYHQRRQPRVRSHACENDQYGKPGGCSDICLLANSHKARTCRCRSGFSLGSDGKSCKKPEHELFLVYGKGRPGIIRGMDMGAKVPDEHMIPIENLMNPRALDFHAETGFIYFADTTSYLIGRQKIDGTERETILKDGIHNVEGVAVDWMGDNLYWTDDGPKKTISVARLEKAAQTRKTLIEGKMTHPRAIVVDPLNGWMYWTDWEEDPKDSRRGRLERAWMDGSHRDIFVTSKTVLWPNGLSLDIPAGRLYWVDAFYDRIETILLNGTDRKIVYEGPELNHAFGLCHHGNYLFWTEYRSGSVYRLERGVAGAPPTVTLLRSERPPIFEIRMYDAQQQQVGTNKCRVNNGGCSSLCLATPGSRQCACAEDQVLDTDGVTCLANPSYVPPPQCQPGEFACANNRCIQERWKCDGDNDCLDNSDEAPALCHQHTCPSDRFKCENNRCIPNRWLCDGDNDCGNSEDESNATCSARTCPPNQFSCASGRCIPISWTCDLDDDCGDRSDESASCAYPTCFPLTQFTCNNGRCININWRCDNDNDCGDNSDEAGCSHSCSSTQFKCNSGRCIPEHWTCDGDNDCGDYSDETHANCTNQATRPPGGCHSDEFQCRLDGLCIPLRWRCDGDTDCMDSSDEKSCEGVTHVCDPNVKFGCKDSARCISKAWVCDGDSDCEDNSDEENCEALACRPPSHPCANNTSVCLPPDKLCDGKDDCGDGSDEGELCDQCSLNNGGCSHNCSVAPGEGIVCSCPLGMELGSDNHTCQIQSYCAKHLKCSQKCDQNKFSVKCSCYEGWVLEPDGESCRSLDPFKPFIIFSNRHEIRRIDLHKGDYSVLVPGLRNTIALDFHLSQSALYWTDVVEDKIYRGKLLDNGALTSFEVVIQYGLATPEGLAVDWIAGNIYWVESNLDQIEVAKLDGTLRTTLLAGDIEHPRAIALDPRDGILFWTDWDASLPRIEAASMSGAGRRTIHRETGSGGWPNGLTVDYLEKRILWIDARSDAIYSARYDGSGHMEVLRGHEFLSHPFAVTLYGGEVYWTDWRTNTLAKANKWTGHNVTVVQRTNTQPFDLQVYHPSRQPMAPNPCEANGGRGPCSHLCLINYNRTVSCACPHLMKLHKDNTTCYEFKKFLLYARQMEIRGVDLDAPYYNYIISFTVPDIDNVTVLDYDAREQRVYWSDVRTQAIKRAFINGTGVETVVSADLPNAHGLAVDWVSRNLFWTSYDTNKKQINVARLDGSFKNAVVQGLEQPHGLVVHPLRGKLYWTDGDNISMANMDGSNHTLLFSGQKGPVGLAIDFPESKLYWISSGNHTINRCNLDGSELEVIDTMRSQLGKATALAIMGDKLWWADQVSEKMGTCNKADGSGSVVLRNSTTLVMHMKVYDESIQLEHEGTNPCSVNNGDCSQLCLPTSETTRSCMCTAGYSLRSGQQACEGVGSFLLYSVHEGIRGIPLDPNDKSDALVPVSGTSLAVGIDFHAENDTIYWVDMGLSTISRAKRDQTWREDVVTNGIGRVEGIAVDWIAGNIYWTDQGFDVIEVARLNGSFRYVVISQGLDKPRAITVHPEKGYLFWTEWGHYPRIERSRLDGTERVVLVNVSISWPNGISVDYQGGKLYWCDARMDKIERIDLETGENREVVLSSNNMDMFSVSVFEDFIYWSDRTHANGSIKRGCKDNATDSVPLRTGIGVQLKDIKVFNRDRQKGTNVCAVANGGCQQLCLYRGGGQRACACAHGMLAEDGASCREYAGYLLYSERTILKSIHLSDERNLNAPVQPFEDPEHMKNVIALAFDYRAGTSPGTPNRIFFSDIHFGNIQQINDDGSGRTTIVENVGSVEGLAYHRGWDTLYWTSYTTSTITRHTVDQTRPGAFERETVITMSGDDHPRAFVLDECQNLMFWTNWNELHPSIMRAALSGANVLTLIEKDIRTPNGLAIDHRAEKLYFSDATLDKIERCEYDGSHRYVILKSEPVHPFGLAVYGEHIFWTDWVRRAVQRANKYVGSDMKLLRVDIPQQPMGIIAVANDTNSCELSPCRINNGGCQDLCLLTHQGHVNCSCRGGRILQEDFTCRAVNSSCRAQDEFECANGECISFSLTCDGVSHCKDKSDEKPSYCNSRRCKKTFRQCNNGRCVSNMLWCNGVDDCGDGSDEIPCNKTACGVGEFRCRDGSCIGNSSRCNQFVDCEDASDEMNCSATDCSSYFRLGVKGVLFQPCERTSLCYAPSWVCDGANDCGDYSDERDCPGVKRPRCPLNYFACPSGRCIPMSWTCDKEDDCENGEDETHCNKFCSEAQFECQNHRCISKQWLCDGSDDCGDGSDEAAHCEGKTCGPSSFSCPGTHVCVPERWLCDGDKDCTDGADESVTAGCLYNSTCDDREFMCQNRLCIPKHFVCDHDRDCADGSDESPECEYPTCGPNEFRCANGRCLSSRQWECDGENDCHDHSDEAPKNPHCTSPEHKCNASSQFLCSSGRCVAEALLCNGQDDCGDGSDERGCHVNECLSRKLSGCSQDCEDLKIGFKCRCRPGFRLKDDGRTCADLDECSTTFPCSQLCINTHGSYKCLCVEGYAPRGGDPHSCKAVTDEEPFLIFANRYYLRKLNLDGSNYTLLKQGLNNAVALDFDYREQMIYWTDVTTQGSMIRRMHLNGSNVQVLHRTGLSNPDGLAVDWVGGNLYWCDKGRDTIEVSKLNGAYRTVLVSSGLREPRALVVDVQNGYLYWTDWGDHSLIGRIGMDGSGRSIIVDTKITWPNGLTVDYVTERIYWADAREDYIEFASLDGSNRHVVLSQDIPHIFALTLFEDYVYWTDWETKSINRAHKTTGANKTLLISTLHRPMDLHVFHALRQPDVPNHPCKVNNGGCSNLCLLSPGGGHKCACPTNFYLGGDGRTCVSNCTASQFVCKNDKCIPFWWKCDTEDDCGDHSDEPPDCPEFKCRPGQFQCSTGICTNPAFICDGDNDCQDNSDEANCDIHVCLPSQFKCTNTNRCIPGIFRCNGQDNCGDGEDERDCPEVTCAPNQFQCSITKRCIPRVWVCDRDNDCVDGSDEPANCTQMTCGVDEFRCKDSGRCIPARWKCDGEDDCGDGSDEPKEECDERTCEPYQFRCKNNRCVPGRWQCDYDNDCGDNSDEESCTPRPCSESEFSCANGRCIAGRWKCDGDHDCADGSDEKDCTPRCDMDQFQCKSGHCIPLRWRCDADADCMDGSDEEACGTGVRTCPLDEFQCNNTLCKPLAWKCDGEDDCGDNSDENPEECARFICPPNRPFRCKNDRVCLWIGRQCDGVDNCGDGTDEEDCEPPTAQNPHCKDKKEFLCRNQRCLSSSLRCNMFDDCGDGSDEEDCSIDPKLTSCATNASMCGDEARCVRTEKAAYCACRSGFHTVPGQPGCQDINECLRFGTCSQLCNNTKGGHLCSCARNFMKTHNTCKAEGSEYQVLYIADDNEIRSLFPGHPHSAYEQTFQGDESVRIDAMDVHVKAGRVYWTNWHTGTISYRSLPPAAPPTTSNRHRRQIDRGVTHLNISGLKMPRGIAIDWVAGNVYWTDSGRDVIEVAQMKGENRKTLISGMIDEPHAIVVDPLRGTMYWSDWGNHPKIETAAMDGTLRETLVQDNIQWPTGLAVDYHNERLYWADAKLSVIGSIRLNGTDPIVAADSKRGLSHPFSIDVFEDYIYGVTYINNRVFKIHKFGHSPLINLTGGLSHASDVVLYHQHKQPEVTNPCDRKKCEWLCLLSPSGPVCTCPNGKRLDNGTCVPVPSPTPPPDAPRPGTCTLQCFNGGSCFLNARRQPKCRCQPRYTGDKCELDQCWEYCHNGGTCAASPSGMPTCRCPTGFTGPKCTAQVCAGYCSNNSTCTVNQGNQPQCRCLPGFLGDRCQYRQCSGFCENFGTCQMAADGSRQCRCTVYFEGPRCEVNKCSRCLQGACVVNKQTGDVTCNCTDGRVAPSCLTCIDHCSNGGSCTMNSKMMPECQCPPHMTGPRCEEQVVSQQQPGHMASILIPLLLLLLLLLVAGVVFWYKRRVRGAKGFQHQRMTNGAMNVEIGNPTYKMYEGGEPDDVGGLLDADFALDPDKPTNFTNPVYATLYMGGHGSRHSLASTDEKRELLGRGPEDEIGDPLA
T2 sequence (Q91ZX7 20-4545): as above

Q: Which “degraded/internalized 125I-CTGF with additive” value [1] does the source give for `CC(C)C[C@H](NC(=O)[C@@H](NC(=O)N[C@@H](Cc1ccccc1)C(=O)O)[C@@H]1CCN=C(N)N1)C(=O)N[C@H](C=O)Cc1ccccc1` [Chymostatin] here?
A: no appreciable affect

Q: What does the source list for `CCN(CC)CCCC(C)Nc1ccnc2cc(Cl)ccc12` (centres unmarked) [chloroquin, Chloroquin]?
A: rhCTGF remaining internalized, TGF-β treated cultures ([1]; chloroquin treated samples, TGF-β treated cultures): ~400 fmol; rhCTGF remaining internalized, control cultures ([1]; chloroquin treated samples, control cultures): About 1000 fmoles; secretion of CTGF degradation products into the medium ([1]; in the presence of chloroquin): not secreted into the medium

Q: For “GST: GST protein by itself, control for RAP-GST”, which “competition for CTGF binding to LRP” value [2] is on record?
A: no competitive activity

Q: Which “competition for CTGF binding to LRP” value [2] does the source give for “RAP-GST: human receptor associated protein as glutathione S-transferase fusion protein made in E. coli; inhibitor of ligand binding to LRP” here?
A: able to compete

Q: And the “degraded/internalized 125I-CTGF with additive” value [1]?
A: to background levels

Q: What about the “CTGF levels in cell layer, RAP treated samples” value [3] of the same compound?
A: slightly increased levels

Q: And the “CTGF medium concentration at 15 and 23 hours” value [3]?
A: an increase

Q: What about the “CTGF medium levels at 47 hours” value [3] of the same compound?
A: returned to basal levels

Q: What does the source list for “apolipoprotein E [apoE, reference compound]”?
A: competition with 125I-CTGF [4]: competed; competing the binding to the LRP receptor [5]: very effective in competing

Q: Which results are given for heparin [reference compound]?
A: rate of degradation of CTGF [6]: reduced the rate; rate of internalization of CTGF [6]: reduced the rate
